This note sets out measurements from patent US20230085307A1, “PYRIDAZINONE COMPOUND AND HERBICIDE” (NISSAN CHEMICAL CORPORATION, priority 2019, published 2023).

For orientation: melting point means the temperature, or range, at which the solid turns liquid.

The test system of series [1] is green foxtail. As to the kind of experiment: Test Example 5: herbicidal effect by foliage application, plastic box (Table 20, symbol G). In kind it is in vivo, green foxtail (Setaria viridis). Particulars: foliage application, AAH 320 g/ha, three weeks after application. In short, it runs like this:
(§1)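 Post-emergence foliar test in sterilized diluvial soil. Compound applied as water-diluted emulsion at a predetermined rate to 14-day-old plants; evaluation at three weeks.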

Series [2] deals with windgrass. Put plainly: Test Example 4: herbicidal effect by soil treatment (Table 19, symbol L). In kind it is in vivo, windgrass (Apera spica-venti). The settings on record: amount of applied herbicide 320 g/ha. A digest of the protocol: (§2)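 Scoring uses the grading scale of an earlier test, three weeks post-application. Treatment consists of spraying a diluted emulsion formulation across the surface of sterilized diluvial soil in which seeds are buried near 1.5 cm deep; boxes are kept in a greenhouse between 25° C. and 30° C.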

Series [3] has as its system rapeseed. Put plainly: Test Example 4: effect on crop by soil treatment (Table 19, symbol g). The series is classed as in vivo. The settings on record: amount of applied herbicide 320 g/ha. The source says: (§3) [Test Example 4] Herbicidal Effect Test by Soil Treatment
(§4) Sterilized diluvial soil was placed in a plastic box having a length of 21 cm, a width of 13 cm, and a depth of 7 cm. The seeds of each of southern crabgrass, green foxtail, barnyard grass, wild oat, blackgrass, Italian ryegrass, windgrass, velvetleaf, redroot pigweed, lambsquarters, chickweed, false cleavers, persian speedwell, corn, soybean, rice, wheat, beet, and rapeseed were sowed in a spot-like manner and covered with the soil having a thickness of about 1.5 cm. Subsequently, the emulsion agent of the compound of the present invention prepared according to Formulation Example 2 was diluted with water so as to achieve a predetermined herbicide amount, and the diluted emulsion agent was uniformly applied to the surface of the soil with a small-sized spray. The plastic box was placed in a greenhouse at 25° C. to 30° C. for growth of the plants. Three weeks after the herbicide application, the effect of the herbicide on each plant was evaluated according to the criteria of Test Example 1.

Series [4] concerns Italian ryegrass. As to the kind of experiment: Test Example 4: herbicidal effect by soil treatment (Table 19, symbol K). The series is classed as in vivo, Italian ryegrass (Lolium multiflorum). Particulars: amount of applied herbicide 320 g/ha. In short, it runs like this: as §2
Series [5] has as its system corn. As to the kind of experiment: Test Example 5: effect on crop by foliage application, plastic box (Table 20, symbol c). The series is classed as in vivo. The settings on record: AAH 320 g/ha, three weeks after application. A digest of the protocol: as §1
The test system of series [6] is Chinese sprangletop. Put plainly: Test Example 3: herbicidal effect by foliage application, Wagner pot (Table 18, symbol D). In kind it is in vivo, chinese sprangletop (Leptochloa chinensis). The settings on record: 320 g/ha. In short, it runs like this: (§5)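 Plants were sown in alluvial soil held under 0.1–0.5 cm standing water and grown 14 days in a greenhouse at 25–30 °C. An emulsifiable formulation, water-diluted to the set dose, was then sprayed onto the foliage, and effects were scored three weeks later using previously defined criteria.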

In series [7] the test system is blackgrass. Put plainly: Test Example 4: herbicidal effect by soil treatment (Table 19, symbol J). Particulars: amount of applied herbicide 320 g/ha. In kind it is in vivo, blackgrass (Alopecurus myosuroides). A digest of the protocol:
as §2

Series [8] deals with beet. Put plainly: Test Example 5: effect on crop by foliage application, plastic box (Table 20, symbol f). The series is classed as in vivo. Particulars: AAH 320 g/ha, three weeks after application.
From the text: [Test Example 5] Herbicidal Effect Test by Foliage Application
as §4, with “Thereafter, the plants were grown in a greenhouse at 25° C. to 30° C. After 14-day growth of the plants,” for “Subsequently,”, “a foliage part” for “the surface of the soil”, “spray.” for “spray. The plastic box was placed in a greenhouse at 25° C. to 30° C. for growth of the plants.”

Series [9] concerns barnyard grass. As to the kind of experiment: Test Example 5: herbicidal effect by foliage application, plastic box (Table 20, symbol H). In kind it is in vivo, barnyard grass (Echinochloa crus-galli). The settings on record: foliage application, AAH 320 g/ha, three weeks after application. A digest of the protocol: as §1
Series [10] deals with lambsquarters. As to the kind of experiment: Test Example 5: herbicidal effect by foliage application, plastic box (Table 20, symbol O). The settings on record: foliage application, AAH 320 g/ha, three weeks after application. In kind it is in vivo, lambsquarters (Chenopodium album). A digest of the protocol: as §1
Series [11] relates to rice flat sedge. Put plainly: Test Example 3: herbicidal effect by foliage application, Wagner pot (Table 18, symbol E). The series is classed as in vivo, rice flat sedge (Cyperus iria). Particulars: 320 g/ha. A digest of the protocol: as §5
Series [12] has as its system persian speedwell. Put plainly: Test Example 4: herbicidal effect by soil treatment (Table 19, symbol R). In kind it is in vivo, Persian speedwell (Veronica persica). Particulars: amount of applied herbicide 320 g/ha. A digest of the protocol: as §2
For series [13], the system named is beet. Put plainly: Test Example 4: effect on crop by soil treatment (Table 19, symbol f). The series is classed as in vivo. Particulars: amount of applied herbicide 320 g/ha. In short, it runs like this: as §2
For series [14], the system named is wheat. As to the kind of experiment: Test Example 4: effect on crop by soil treatment (Table 19, symbol e). In kind it is in vivo. Particulars: amount of applied herbicide 320 g/ha. A digest of the protocol: as §2
Series [15] concerns rapeseed. As to the kind of experiment: Test Example 5: effect on crop by foliage application, plastic box (Table 20, symbol g). In kind it is in vivo. The settings on record: AAH 320 g/ha, three weeks after application. In short, it runs like this: as §1
For series [16], the system named is redroot pigweed. Put plainly: Test Example 5: herbicidal effect by foliage application, plastic box (Table 20, symbol N). In kind it is in vivo, redroot pigweed (Amaranthus retroflexus). The settings on record: foliage application, AAH 320 g/ha, three weeks after application. In short, it runs like this: as §1
Series [17] relates to chickweed. As to the kind of experiment: Test Example 5: herbicidal effect by foliage application, plastic box (Table 20, symbol P). The series is classed as in vivo, common chickweed (Stellaria media). Particulars: foliage application, AAH 320 g/ha, three weeks after application. A digest of the protocol:
as §1

Series [18] relates to false cleavers. As to the kind of experiment: Test Example 4: herbicidal effect by soil treatment (Table 19, symbol Q). In kind it is in vivo, false cleavers (Galium spurium). The settings on record: amount of applied herbicide 320 g/ha. A digest of the protocol:
as §2

Series [19] concerns soybean. Put plainly: Test Example 4: effect on crop by soil treatment (Table 19, symbol d). In kind it is in vivo. Particulars: amount of applied herbicide 320 g/ha.
From the text: as §3, §4

For the molecule `Cc1nn(C)c(=O)c(-c2c(-n3cc(Cl)cn3)sc3ccccc23)c1O` [Compound No. 1-097, 5-hydroxy-2,6-dimethyl-4-(2-(4-chloro-1H-pyrazol-1-yl)benzo[b]thiophen-3-yl)pyridazin-3(2H)-one], the melting point lay within 232 to 234 °C. Also, the “G: green foxtail, herbicidal effect” value in [1] is on record as 0 (Herbicidal rate of 5% or less (almost no effect)). Further, the “herbicidal effect rating, L: windgrass” value in [2] is given as 0 (Herbicidal rate of 5% or less (almost no effect)). For the same molecule, the “effect rating on crop, g: rapeseed” value in series [3] is recorded as 0 (Herbicidal rate of 5% or less (almost no effect)). Moreover, in [4], the “herbicidal effect rating, K: Italian ryegrass” value is listed as 0 (Herbicidal rate of 5% or less (almost no effect)). For the same molecule, in [5], the “c: corn, effect on crop” value is given as 0 (Herbicidal rate of 5% or less (almost no effect)). Moreover, the “herbicidal effect on D (Chinese sprangletop), rating 0-5” value in series [6] is recorded as 0 (Herbicidal rate of 5% or less (almost no effect)). In series [7], the “herbicidal effect rating, J: blackgrass” value is reported as 0 (Herbicidal rate of 5% or less (almost no effect)). The “f: beet, effect on crop” value in series [8] was 5 (Herbicidal rate of 90% or more (almost completely withered)). Besides, the “H: barnyard grass, herbicidal effect” value in series [9] is on record as 0 (Herbicidal rate of 5% or less (almost no effect)). Moreover, the “O: lambsquarters, herbicidal effect” value in series [10] is 0 (Herbicidal rate of 5% or less (almost no effect)). Besides, the “herbicidal effect on E (rice flat sedge), rating 0-5” value in series [11] was 4 (Herbicidal rate of 70% or more and less than 90%). Moreover, in [12], the “herbicidal effect rating, R: persian speedwell” value was 0 (Herbicidal rate of 5% or less (almost no effect)). Further, the “effect rating on crop, f: beet” value in [13] is 0 (Herbicidal rate of 5% or less (almost no effect)). In addition, the “effect rating on crop, e: wheat” value in [14] is 0 (Herbicidal rate of 5% or less (almost no effect)). Moreover, the “g: rapeseed, effect on crop” value in series [15] is given as 5 (Herbicidal rate of 90% or more (almost completely withered)). In addition, the “N: redroot pigweed, herbicidal effect” value in series [16] is 3 (Herbicidal rate of 40% or more and less than 70%). The “P: chickweed, herbicidal effect” value in [17] is recorded as 5 (Herbicidal rate of 90% or more (almost completely withered)). In series [18], the “herbicidal effect rating, Q: false cleavers” value is reported as 0 (Herbicidal rate of 5% or less (almost no effect)). Also, in series [19], the “effect rating on crop, d: soybean” value is reported as 0 (Herbicidal rate of 5% or less (almost no effect)).
